The target of one data set is PLK1 (Homo sapiens, UniProt P53350). Kind of data set: Kinase selectivity panel. It counts as biochemical.
The next data set deals with DNAPK (Homo sapiens, UniProt P78527). Kind of data set: Kinase selectivity panel. Type of data set: biochemical.
In the next data set the target is CDK2 (Homo sapiens, UniProt P24941). Kind of data set: Kinase selectivity panel. It counts as biochemical.
The next data set concerns the target CDK7 (Homo sapiens, UniProt P50613). Kind of data set: Kinase selectivity panel. It counts as biochemical.
The target in a further data set is VRK2 (Homo sapiens, UniProt Q86Y07). Kind of data set: Kinase selectivity panel. Type of data set: biochemical.
For a further data set, the system named is H2AT120p in DU145 cells. Kind of data set: Cellular H2AT120p by western blotting and immunostaining. Type of data set: cell-based, human. As for the experimental part: To this end, Applicants' inhouse small-molecule library of 5,000 compounds was screened. […] To evaluate their cellular effects, DU145 cells were treated with the compounds in the concentration range of […] for 24 hr. […] Thus, although Applicants cannot exclude the possibility that other kinases that were not included in the selectivity screen might be affected, B32B3 can be defined as a highly specific VprBP inhibitor at present.
The levels of VprBP and H2AT120p in tumors tissues were determined in FDA human tumor organ tissue microarray, which includes 16 types of organ cancer with matched or unmatched adjacent normal tissue (US Biomax, Inc). The formalin-fixed, paraffin-embedded sections were blocked by treating with blocking reagent (50 mM Tris-HCl, pH 7.5, 150 mM NaCl, 0.3% Triton X-100, and 5% normal goat serum) for 30 min at room temperature and incubated with VprBP and H2AT120p antibodies at 4° C. overnight. Immunodetection was performed using ABC reagent (Vectorstain). DAB (Vector Lab) was used for color development and hematoxylin (Sigma) was used for counterstaining. The intensity and distribution patterns of staining were evaluated by semiquantitative immunohistochemical assessment. The intensity of staining was graded from − to +++ (−, no staining; +, weak staining; ++, moderate staining; and +++, strong staining) The distribution of staining was classified from 0 to 3 (0, 0-20%; 1, 21-50%; 2, 51-80%; 3, 81-100%). For immunofluorescence of DU145 cells, cells were treated with DMSO or B32B3 (0.5 μM) for 24 h and fixed with 4% paraformaldehyde for 15 min. The corresponding samples were permeabilized with 0.3% Triton X-100 for 15 min and immunostained with H2AT120p antibody.

The next data set has as its target STK25 (Homo sapiens, UniProt O00506). Kind of data set: Kinase selectivity panel. Type of data set: biochemical.
Data set [1] in a line: Mouse pharmacokinetics of B32B3. The settings on record: plasma, dose of 5 mg/kg in mice. It counts as in vivo. As to the method: Mouse pharmacokinetic study was carried out using mice (n=5) that were fasted for 12 h prior to and 2 h after dosing with B32B3 (5 mg/kg). Blood samples were collected from orbital sinus at 10, 30, 60, 120, 240, and 480 min post dose. The plasma was separated from blood samples by centrifugation and analyzed in the Agilent 1200 HPLC system coupled to Agilent 6460A QQQ mass spectrophotometer. The plasma concentration-time data were analyzed by noncompartmental analysis using WinNonlin version 4.1 (Pharsight).

Another data set addresses SYK (Homo sapiens, UniProt P43405). As to the kind of experiment: Kinase selectivity panel. It counts as biochemical.
In the next data set the target is BUB1 (Homo sapiens, UniProt O43683). Kind of data set: Kinase selectivity panel. Type of data set: biochemical.
Sequence of BUB1 (O43683 whole entry): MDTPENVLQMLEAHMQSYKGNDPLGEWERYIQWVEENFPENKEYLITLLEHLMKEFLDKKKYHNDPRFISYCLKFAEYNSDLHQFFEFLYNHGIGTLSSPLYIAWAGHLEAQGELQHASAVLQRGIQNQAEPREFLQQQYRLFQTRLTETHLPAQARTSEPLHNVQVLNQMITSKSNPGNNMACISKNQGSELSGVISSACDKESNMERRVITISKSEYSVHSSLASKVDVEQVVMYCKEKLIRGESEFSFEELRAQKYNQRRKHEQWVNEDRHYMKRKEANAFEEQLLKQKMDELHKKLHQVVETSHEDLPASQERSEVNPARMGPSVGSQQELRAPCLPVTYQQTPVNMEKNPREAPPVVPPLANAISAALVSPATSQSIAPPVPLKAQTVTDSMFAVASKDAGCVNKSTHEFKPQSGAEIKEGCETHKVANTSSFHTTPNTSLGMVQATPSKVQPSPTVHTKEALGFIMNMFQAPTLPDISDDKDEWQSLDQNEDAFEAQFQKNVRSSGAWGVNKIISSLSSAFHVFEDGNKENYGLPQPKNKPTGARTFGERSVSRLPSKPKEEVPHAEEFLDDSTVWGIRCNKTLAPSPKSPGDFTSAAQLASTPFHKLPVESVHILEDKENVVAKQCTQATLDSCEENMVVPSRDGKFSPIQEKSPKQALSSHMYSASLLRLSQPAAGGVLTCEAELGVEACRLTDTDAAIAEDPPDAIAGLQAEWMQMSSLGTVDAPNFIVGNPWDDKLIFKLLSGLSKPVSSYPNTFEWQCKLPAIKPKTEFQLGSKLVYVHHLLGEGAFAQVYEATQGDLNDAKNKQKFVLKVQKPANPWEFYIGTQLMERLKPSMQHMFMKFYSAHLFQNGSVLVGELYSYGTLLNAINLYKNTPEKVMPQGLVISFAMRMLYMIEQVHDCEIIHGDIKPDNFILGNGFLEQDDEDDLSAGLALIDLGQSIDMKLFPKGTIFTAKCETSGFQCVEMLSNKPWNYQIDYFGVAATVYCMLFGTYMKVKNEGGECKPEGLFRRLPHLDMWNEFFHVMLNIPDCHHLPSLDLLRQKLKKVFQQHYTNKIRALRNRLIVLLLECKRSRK
For the next data set, the target named is ATR (Homo sapiens, UniProt Q13535). As to the kind of experiment: Kinase selectivity panel. It counts as biochemical.
The target of another data set is STK33 (Homo sapiens, UniProt Q9BYT3). As to the kind of experiment: Kinase selectivity panel. Type of data set: biochemical.
The target in another data set is T1, VprBP (Homo sapiens, UniProt Q9Y4B6).
T1 construct: His (N); made in house; host or cells: Sf9 insect cells (baculovirus)
T1 sequence (Q9Y4B6 whole entry): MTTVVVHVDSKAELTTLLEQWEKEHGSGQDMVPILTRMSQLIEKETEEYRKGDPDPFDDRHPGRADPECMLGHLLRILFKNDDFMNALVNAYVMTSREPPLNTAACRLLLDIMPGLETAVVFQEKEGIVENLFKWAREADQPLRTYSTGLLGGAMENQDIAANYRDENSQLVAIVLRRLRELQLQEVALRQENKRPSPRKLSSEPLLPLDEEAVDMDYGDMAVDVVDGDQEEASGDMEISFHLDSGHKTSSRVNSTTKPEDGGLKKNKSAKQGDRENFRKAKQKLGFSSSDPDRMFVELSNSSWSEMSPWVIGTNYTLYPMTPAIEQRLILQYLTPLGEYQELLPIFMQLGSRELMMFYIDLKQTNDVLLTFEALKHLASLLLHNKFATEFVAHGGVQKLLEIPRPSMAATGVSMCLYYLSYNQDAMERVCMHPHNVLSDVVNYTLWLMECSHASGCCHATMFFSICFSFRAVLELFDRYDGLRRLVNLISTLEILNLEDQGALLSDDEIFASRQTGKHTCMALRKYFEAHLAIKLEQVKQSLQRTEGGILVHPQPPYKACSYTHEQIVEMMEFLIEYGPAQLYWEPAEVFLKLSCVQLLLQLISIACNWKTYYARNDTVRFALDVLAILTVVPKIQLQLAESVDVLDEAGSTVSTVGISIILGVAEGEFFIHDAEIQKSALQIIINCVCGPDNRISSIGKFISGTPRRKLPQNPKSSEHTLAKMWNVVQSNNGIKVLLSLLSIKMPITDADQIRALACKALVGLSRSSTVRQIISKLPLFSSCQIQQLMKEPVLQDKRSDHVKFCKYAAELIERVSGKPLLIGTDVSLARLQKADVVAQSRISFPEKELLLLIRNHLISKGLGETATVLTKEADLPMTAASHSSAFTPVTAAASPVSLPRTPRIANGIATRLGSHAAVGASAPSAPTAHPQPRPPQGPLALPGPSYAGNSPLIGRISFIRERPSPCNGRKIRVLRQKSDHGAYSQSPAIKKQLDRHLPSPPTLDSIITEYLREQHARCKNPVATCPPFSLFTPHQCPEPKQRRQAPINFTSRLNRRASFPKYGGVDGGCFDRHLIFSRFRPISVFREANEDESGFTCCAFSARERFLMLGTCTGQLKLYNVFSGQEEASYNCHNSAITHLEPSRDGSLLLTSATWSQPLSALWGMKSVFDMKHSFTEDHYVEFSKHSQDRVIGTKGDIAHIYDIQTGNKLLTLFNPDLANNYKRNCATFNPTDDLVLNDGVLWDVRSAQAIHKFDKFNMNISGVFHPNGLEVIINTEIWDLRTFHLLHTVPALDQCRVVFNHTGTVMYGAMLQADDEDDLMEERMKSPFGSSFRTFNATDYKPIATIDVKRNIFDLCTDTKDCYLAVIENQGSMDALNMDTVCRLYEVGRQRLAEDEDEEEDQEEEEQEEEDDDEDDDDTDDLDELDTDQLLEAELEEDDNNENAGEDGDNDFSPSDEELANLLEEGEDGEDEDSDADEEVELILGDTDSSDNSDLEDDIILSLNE
Kind of data set: In vitro kinase assay, VprBP (recombinant VprBP and H2A; kinase panel). Type of data set: biochemical. Set-up: Inhibition of VprBP and H2AT120p in in vitro kinase assay (library screen): dose or concentration left out as unconfirmed. As to the method: Recombinant mononucleosomes and nucleosome arrays were reconstituted using recombinant histone octamers as recently described (Jaskelioff, M. et al. (2000) Mol. Cell. Biol. 20:3058-3068; Robinson, P. J. et al. (2008) J. Mol. Biol. 381:816-825). For kinase assays, recombinant VprBP was incubated with free histones ([…]) or reconstituted nucleosomes ([…]) in kinase buffer (50 mM Tris-HCl [pH 7.5], 20 mM EGTA, 10 mM MgCl2, 1 mM DTT, and 1 mM b-glycerophosphate) containing 10 mCi of [g-32P] ATP and 4 mM ATP for 30 min at 30_C. Proteins from each reaction were separated by SDS-PAGE, Coomassie blue stained, dried, and visualized by autoradiography. To create VprBP inhibitors, a collection of 5,000 compounds was screened in the same kinase assays at a final concentration […]. In vitro transcription assays were as described (Kim, K. et al. (2012) Mol. Cell. Biol. 32:783-796), except that G5ML-601 nucleosome arrays (100 ng) and Gal4-VP16 (15 ng) were used for the reactions. Recombinant VprBP (25 or 50 ng) and ATP (10 mM) were added before p300 (20 ng) and AcCoA (10 mM).

The subject of another data set is DU145 tumor xenografts. Kind of data set: DU145 tumor xenografts in nude mice. It counts as in vivo. As for the experimental part:
All animal experiments were performed according to protocols approved by the Institutional Animal Care and Use Committee. Tumor xenografts were established by subcutaneous injection of 1 3 107 DU145 cells into 8-weekold female nude mice (n=8). At day 5 after injection, the mice bearing DU145 tumor xenografts were treated with twice-weekly i.p. injections of either DMSO or B32B3 at a dose of 5 mg/kg throughout the duration of the experiment. Tumor dimension was measured by calipers twice a week, and tumor mass was calculated as described (Heo, K. et al. (2012) Oncogene 32:2510-2520). The mice were killed by asphyxiation with CO2, and tumors were excised and weighed 25 day after the cell injection. To analyze the H2AT120p, formalin-fixed and paraffin-embedded sections ([…]) from DU145 tumor xenografts were subject to immunohistochemistry. Animal studies were conducted under approved institutional protocols.

For another data set, the target named is PRKCD (Homo sapiens, UniProt Q05655). Kind of data set: Kinase selectivity panel. Type of data set: biochemical.
Sequence of PRKCD (Q05655 whole entry): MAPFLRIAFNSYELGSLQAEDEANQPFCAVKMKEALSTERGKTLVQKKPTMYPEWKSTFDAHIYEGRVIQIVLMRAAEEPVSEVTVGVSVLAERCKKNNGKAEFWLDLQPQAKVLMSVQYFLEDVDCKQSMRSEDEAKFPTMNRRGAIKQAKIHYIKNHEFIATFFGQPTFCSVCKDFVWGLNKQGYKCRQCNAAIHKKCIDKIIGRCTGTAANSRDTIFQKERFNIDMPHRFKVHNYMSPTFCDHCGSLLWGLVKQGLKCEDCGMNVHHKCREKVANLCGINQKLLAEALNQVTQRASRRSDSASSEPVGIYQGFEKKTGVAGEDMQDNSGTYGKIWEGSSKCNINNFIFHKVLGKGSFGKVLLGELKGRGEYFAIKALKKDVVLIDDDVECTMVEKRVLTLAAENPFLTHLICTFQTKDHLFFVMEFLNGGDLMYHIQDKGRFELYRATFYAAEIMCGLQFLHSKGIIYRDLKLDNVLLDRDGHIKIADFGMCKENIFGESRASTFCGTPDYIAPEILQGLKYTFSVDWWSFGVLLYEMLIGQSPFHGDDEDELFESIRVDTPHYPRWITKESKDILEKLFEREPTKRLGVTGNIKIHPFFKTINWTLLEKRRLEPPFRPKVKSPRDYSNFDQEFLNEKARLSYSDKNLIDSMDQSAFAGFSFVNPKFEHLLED

Each structure is given as a SMILES string.

What is called IC50 is the concentration that inhibits the measured activity by half. Broadly, the Cmax is the peak of the concentration-time curve.

Sequence of CDK7 (P50613 whole entry): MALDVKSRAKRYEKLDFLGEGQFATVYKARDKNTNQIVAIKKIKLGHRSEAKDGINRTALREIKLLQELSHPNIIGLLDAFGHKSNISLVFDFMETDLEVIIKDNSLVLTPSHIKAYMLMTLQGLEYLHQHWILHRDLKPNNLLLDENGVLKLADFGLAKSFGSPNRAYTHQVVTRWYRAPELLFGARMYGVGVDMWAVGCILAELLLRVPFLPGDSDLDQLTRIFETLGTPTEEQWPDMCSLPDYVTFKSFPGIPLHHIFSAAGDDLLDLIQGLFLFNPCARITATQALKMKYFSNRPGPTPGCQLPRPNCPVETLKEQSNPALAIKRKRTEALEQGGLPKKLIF
Sequence of CDK7 (P51946 whole entry partner): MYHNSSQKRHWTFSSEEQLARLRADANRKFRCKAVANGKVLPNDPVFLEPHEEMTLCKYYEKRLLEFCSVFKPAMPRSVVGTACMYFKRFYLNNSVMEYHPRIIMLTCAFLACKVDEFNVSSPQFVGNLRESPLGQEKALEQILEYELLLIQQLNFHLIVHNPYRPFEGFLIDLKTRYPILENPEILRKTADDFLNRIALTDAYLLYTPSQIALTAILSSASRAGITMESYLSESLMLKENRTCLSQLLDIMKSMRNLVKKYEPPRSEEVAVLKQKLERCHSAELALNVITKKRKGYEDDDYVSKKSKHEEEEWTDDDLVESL
Sequence of CDK7 (P51948 whole entry partner): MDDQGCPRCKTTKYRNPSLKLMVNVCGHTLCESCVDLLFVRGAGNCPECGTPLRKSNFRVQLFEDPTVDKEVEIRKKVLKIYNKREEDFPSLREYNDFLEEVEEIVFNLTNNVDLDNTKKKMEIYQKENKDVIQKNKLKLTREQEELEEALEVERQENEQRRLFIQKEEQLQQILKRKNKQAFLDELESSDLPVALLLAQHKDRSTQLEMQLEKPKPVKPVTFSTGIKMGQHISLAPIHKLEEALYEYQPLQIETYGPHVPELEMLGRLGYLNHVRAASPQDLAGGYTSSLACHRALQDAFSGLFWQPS
Sequence of STK25 (O00506 whole entry): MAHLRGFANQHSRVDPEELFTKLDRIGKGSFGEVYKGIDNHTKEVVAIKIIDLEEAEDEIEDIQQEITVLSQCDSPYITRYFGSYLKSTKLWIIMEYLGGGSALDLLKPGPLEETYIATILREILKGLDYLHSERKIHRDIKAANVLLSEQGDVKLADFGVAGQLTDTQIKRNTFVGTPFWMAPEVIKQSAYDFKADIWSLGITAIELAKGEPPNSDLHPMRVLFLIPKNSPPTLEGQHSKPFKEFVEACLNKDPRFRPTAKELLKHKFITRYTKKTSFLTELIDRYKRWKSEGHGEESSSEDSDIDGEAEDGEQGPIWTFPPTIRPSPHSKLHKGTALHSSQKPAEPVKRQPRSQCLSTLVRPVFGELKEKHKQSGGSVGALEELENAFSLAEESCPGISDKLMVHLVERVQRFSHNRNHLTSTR

With `c1ccc2c(CNNc3ncnc4sc5c(c34)CCCC5)c[nH]c2c1` [B32B3], the IC50 is > 10 µM at PLK1; > 10 µM against DNAPK; > 10 µM against CDK2; > 10 µM against CDK7; > 10 µM against VRK2; 0.5 µM in the data set with H2AT120p in DU145 cells (Homo sapiens, DU-145, DU145 cells, 24 hr, 0-5 mM, read-out: IC50 for inhibition of H2AT120p). In addition, the IC50 was > 10 µM at STK25; > 10 µM on SYK; > 10 µM at BUB1; > 10 µM against ATR; > 10 µM against STK33; 0.6 µM at VprBP (panel of 33 human kinases, read-out: IC50 for VprBP as stated in text). Besides, the half-maximal inhibitory concentration (IC50) at PRKCD is > 10 µM. Besides, in the data set on H2AT120p in DU145 cells (DU145 cells overexpressing VprBP, 24 h), the “Potency in cells overexpressing VprBP” value is recorded as “considerably less potent”. The “Decrease in IC50 (H2AT120p) upon knockdown of VprBP” value in the data set on H2AT120p in DU145 cells (VprBP-knockdown DU145 cells, 24 h) was “circa 2 fold”. In data set [1], the highest concentration (Cmax) was 1000 nM. The “Selectivity for VprBP over 33 other kinases” value on VprBP (panel of 33 human kinases) is on record as “greater than 100 fold”. Also, the “Inhibition of VprBP and H2AT120p in in vitro kinase assay (library screen)” value on VprBP (recombinant H2A and VprBP, western blotting with H2AT120p antibody) was “inhibited VprBP and decreased H2AT120p”. In addition, the Tumor growth inhibition in the data set on DU145 tumor xenografts (5 mg/kg i.p. twice a week over 3 weeks, calculated the day after the last treatment) was 70%-75%. Also, the “Body weight loss during treatment” value with DU145 tumor xenografts (5 mg/kg i.p. twice weekly) is reported as “did not cause any significant weight loss”. The Tolerability in mice entry in the data set on DU145 tumor xenografts (5 mg/kg i.p. twice weekly) is on record as “well tolerated”. The “Levels of H2AT120p in xenograft tumors (immunohistochemistry)” value in the data set with DU145 tumor xenografts (compared to DMSO-treated controls) is “greatly decreased”.

The values are drawn from US9234018B2, “Compositions and methods for the treatment of VprBP-related cancers” (University of Southern California, priority 2013, dated 2016).
